{"source": "ChEMBL document CHEMBL3227939", "about": "“Synthesis of daunorubicin analogues with novel 9-acyl substituents” (1979)", "key": {"[1]": {"system": "L1210", "assay": "Inhibition of DNA synthesis in mouse L1210 cells", "assay_type": "functional", "details": "read-out: ED50 (the source's name)"}, "[2]": {"system": "L1210", "assay": "Inhibition of RNA synthesis in mouse L1210 cells", "assay_type": "functional", "details": "read-out: ED50 (the source's name)"}, "[3]": {"system": "Calf thymus DNA", "assay": "Binding affinity to calf thymus DNA assessed as change in melting temperature", "assay_type": "nucleic-acid assay", "details": "Bos taurus"}, "[4]": {"system": "P388", "assay": "Antitumor activity against mouse P388 cells allografted in CDF/RDF mouse assessed as increase in survival time at 3.13 mg/kg, ip administered once daily on days 1 to 9 relative to control", "assay_type": "functional", "details": "route intraperitoneal"}, "[5]": {"system": "P388", "assay": "Antitumor activity against mouse P388 cells allografted in CDF/RDF mouse assessed as increase in survival time at 37.5 mg/kg, ip administered once daily on day 5, 9 and 13 relative to control", "assay_type": "functional", "details": "route intraperitoneal"}, "[6]": {"system": "P388", "assay": "Antitumor activity against mouse P388 cells allografted in CDF/RDF mouse assessed as increase in survival time at 12.5 mg/kg, ip administered once daily on day 5, 9 and 13 relative to control", "assay_type": "functional", "details": "route intraperitoneal"}, "[7]": {"system": "P388", "assay": "Antitumor activity against mouse P388 cells allografted in CDF/RDF mouse assessed as increase in survival time at 50 mg/kg, ip administered once daily on day 5, 9 and 13 relative to control", "assay_type": "functional", "details": "route intraperitoneal"}, "[8]": {"system": "P388", "assay": "Antitumor activity against mouse P388 cells allografted in CDF/RDF mouse assessed as increase in survival time at 4 mg/kg, ip administered once daily on days 1 to 9 relative to control", "assay_type": "functional", "details": "route intraperitoneal"}}}
{"smiles": "COc1cccc2c1C(=O)c1c(O)c3c(c(O)c1C2=O)C[C@@](O)(C(C)=O)C[C@@H]3O[C@H]1C[C@H](N)[C@H](O)[C@H](C)O1", "note": "[DAUNORUBICIN]", "values": [{"measurement": "EC50", "setting": "[1]", "value": 660, "unit": "nM"}, {"measurement": "EC50", "setting": "[2]", "value": 330, "unit": "nM"}]}
{"smiles": "COc1cccc2c1C(=O)c1c(O)c3c(c(O)c1C2=O)C[C@@](O)(C(=O)C(C)C)C[C@@H]3O[C@H]1C[C@H](N)[C@H](O)[C@H](C)O1", "values": [{"measurement": "EC50", "setting": "[1]", "value": 1000, "unit": "nM"}, {"measurement": "ΔTm", "setting": "[3]", "value": 10.3, "unit": "°C"}, {"measurement": "T/C", "setting": "[4]", "value": 117, "unit": "%"}, {"measurement": "T/C", "setting": "[5]", "value": 122, "unit": "%"}, {"measurement": "EC50", "setting": "[2]", "value": 400, "unit": "nM"}]}
{"smiles": "CCC(=O)[C@]1(O)Cc2c(O)c3c(c(O)c2[C@@H](O[C@H]2C[C@H](N)[C@H](O)[C@H](C)O2)C1)C(=O)c1c(OC)cccc1C3=O", "values": [{"measurement": "T/C", "setting": "[6]", "value": 128, "unit": "%"}, {"measurement": "EC50", "setting": "[1]", "value": 670, "unit": "nM"}, {"measurement": "ΔTm", "setting": "[3]", "value": 11, "unit": "°C"}, {"measurement": "EC50", "setting": "[2]", "value": 290, "unit": "nM"}]}
{"smiles": "COc1cccc2c1C(=O)c1c(O)c3c(c(O)c1C2=O)C[C@@](O)(C(=O)CCc1ccccc1)C[C@@H]3O[C@H]1C[C@H](N)[C@H](O)[C@H](C)O1", "values": [{"measurement": "EC50", "setting": "[1]", "value": 1500, "unit": "nM"}, {"measurement": "ΔTm", "setting": "[3]", "value": 8.6, "unit": "°C"}, {"measurement": "T/C", "setting": "[7]", "value": 129, "unit": "%"}, {"measurement": "EC50", "setting": "[2]", "value": 1600, "unit": "nM"}]}
{"smiles": "COc1cccc2c1C(=O)c1c(O)c3c(c(O)c1C2=O)C[C@@](O)(C=O)C[C@@H]3O[C@H]1C[C@H](N)[C@H](O)[C@H](C)O1", "values": [{"measurement": "EC50", "setting": "[1]", "value": 4100, "unit": "nM"}, {"measurement": "ΔTm", "setting": "[3]", "value": 6.5, "unit": "°C"}, {"measurement": "T/C", "setting": "[8]", "value": 169, "unit": "%"}, {"measurement": "T/C", "setting": "[7]", "value": 154, "unit": "%"}, {"measurement": "EC50", "setting": "[2]", "value": 2000, "unit": "nM"}]}
{"smiles": "COc1cccc2c1C(=O)c1c(O)c3c(c(O)c1C2=O)C[C@@](O)(C(=O)CO)C[C@@H]3O[C@H]1C[C@H](N)[C@H](O)[C@H](C)O1", "note": "[DOXORUBICIN]", "values": [{"measurement": "EC50", "setting": "[1]", "value": 1500, "unit": "nM"}, {"measurement": "EC50", "setting": "[2]", "value": 580, "unit": "nM"}]}
